{
  "source": "paper PMC11514582",
  "about": "“Leveraging the Aggregated Protein Dye YAT2150 for Malaria Chemotherapy” (Pharmaceutics, 2024)",
  "key": {"[1]": {"settings": "cited from earlier work"}, "[2]": {"test_system": "P. falciparum gametocytes", "settings": "cited from earlier work"}, "[3]": {"test_system": "P. falciparum asexual blood stages", "assay": "microbe, parasite or virus in culture", "settings": "Plasmodium falciparum", "description": "(§1) The asexual blood stages of P. falciparum parasites of the 3D7 strain (Malaria Research and Reference Reagent Resource Center, Manassas, VA, USA) were cultured in group B human RBCs at 3% hematocrit, which was kept throughout the experiments, and incubated in RPMIc. Parasites were maintained at 37 °C under an atmosphere of 5% O2, 5% CO2, and 90% N2. […] The parasites were then cultured under standard conditions for 48 h, allowing for a complete replication cycle. After the incubation period, 3 µL of culture from each well was mixed with 197 µL of PBS containing 0.1 µM Syto 11 (Thermo Fisher Scientific, Inc.) to obtain a final concentration of 1 × 10^6 to 10 × 10^6 cells/mL. Parasitemia levels were measured using an LSRFortessa flow cytometer equipped with a standard configuration of four lasers and 20 parameters. Single-cell populations were identified on a forward-side scatter plot. […] The inhibition data were then transformed using sigmoidal fitting to determine IC50.\n(§2) For stage arrest assays, P. falciparum cultures were tightly synchronized in schizont stages by repeated treatment with 70% Percoll (GE Healthcare, Chicago, IL, USA) [26, 27]. […] Pictures were taken with a Nikon Eclipse 50i microscope equipped with a DS-Fi1 camera (Nikon Corporation, Tokyo, Japan)."}, "Caco-2 cells": {"test_system": "Caco-2 cells", "assay": "Influx and efflux assays in Caco-2 cells with transporter/endocytosis inhibitors", "assay_type": "cell-based, human", "settings": "5 µM, FBS-free medium", "text": "The panel of influx and efflux membrane transporters expressed in Caco-2 cells has been previously characterized and, to a great extent, mimics the one described in human intestine. Based upon this information and the established knowledge of the physiology of intestinal transporters, we considered the following as possible YAT2150 influx transporters: Organic Cation Transporters (OCTs), Peptide Transporter 1 (PEPT1), and Organic Anion Transporter Polypeptide 2B1 (OATP2B1). […]\nCaco-2 cells were grown in monolayer on a solid support at 37 °C in a humidified atmosphere with 5% CO2 and maintained in DMEM supplemented with 10% FBS, 2 mM L-glutamine, 1% MEM non-essential amino acids, 20 U/mL penicillin, and 20 µg/mL streptomycin (Life Technologies, Carlsbad, CA, USA). To identify YAT2150 influx and efflux mechanisms in Caco-2 cells, YAT2150 intracellular accumulation was determined by measuring its fluorescent emission at 610 nm under various experimental conditions as follows. A total of 50,000 cells/well were seeded in MW24 plates, and 24 h after seeding, YAT2150 influx and efflux were determined either in the presence or absence of FBS. […] Then, cells were washed with PBS, and intracellular YAT2150 was determined (see below). […] In parallel, emitted fluorescence was measured in an iBright Imaging System and quantified by iBright Analysis Software 5.3.0 (Thermo Fisher Scientific, Inc.). […]"}, "[4]": {"assay": "Cytotoxicity assay in THP-1 (MTT)", "assay_type": "cell-based", "settings": "human, THP-1 cells, read-out: THP-1 inhibition (CC50)", "description": "(§3) THP-1 human acute monocytic leukemia cells and NCI-H460 human lung carcinoma cells were grown in RPMI supplemented with 10% FBS. Hep-G2 human hepatocellular carcinoma cells were cultured in Eagle’s minimum essential medium (EMEM) supplemented with 10% FBS. A2780 human ovarian carcinoma cells were grown in RPMI supplemented with 10% FBS and 2 mM L-glutamine. MCF-7 human breast adenocarcinoma cells were cultured in EMEM containing 2 mM L-glutamine and Earle’s balanced salt solution adjusted with 1.5 g/L sodium bicarbonate, 0.1 mM non-essential amino acids, and 1 mM sodium pyruvate and supplemented with 10% FBS. […] Except for Caco-2 and HUVEC, inhibition of cell growth was evaluated using a protocol based on monitoring the transformation into formazan of the tetrazolium salt of MTT (3-(4,5-dimethylthiazol-2-yl)-2,5-diphenyltretrazolium bromide) by metabolically active cells. […] After 96 further h of incubation in the same conditions, 10 µL of a 5 mg/mL MTT solution in PBS was added to each sample, and the incubation was resumed for another 4 h. […] The absorbance measurement range was framed between one sample containing 4000 cells in plain growth medium (to determine the stable cell concentration) and another sample containing an equal cell number in growth medium supplemented with growth factors (to measure the maximum cell growth at 96 h)."}, "CYP1A2": {"target": "T1, CYP1A2 (Homo sapiens, UniProt P05177)", "T1 sequence (P05177 1-516)": "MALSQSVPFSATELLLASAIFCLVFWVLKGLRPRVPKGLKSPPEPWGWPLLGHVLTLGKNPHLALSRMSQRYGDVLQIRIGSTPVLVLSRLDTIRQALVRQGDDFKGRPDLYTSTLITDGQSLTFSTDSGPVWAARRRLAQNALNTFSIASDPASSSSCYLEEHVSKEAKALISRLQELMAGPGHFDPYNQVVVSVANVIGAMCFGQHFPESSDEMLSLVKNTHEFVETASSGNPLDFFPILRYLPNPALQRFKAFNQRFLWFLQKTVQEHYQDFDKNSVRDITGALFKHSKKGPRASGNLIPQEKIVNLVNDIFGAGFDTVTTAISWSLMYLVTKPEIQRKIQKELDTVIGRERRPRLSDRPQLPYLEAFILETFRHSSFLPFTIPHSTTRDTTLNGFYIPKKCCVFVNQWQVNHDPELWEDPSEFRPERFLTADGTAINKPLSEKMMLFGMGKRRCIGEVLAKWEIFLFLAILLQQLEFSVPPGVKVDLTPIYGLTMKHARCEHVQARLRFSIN", "settings": "cited from earlier work"}, "[5]": {"assay": "Cytotoxicity assay in HEP-G2 (MTT)", "assay_type": "cell-based", "settings": "human, Hep-G2 cells, read-out: HEP-G2 inhibition (CC50)", "description": "as §3"}, "[6]": {"settings": "human hepatocytes; cited from earlier work"}, "CYP3A4": {"target": "CYP3A4 (Homo sapiens, UniProt P08684)", "sequence (P08684 whole entry)": "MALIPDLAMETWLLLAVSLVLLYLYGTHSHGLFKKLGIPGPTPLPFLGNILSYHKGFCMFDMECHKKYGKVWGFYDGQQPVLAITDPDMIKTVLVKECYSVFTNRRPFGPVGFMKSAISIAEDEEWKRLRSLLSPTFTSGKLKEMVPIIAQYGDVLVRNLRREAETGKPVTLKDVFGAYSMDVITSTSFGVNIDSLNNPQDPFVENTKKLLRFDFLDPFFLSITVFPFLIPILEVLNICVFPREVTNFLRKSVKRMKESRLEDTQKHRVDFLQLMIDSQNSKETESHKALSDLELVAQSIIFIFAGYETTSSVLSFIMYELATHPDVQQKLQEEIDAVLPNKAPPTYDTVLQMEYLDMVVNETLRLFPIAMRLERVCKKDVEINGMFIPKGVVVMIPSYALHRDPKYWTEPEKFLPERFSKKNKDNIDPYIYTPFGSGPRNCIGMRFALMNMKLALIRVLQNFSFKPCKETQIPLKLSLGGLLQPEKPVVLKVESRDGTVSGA", "assay": "in vitro", "settings": "microsomes"}, "[7]": {"test_system": "P. falciparum asexual blood stages", "settings": "CC50 in HUVEC / IC50 two-hour incubation in P. falciparum", "description": "as §1, §2"}, "[8]": {"test_system": "P. falciparum asexual blood stages", "settings": "read-out: in vitro IC50 in P. falciparum cultures, including gametocytes; cited from earlier work"}},
  "note": "Read-outs that look alike come from different tables or passages of the source.",
  "data": [
    {"molecule": "CCN(CC)c1ccc(/C=C/c2cc[n+](CCCCCCCCCC[n+]3ccc(/C=C/c4ccc(N(CC)CC)cc4)c(C)c3)cc2C)cc1", "note": "[YAT2150]", "values": [
      {"measurement": "Stability in human plasma (% remaining after 1 h)", "setting": "[1]; 1 h", "value": "100.0 ^7%"},
      {"measurement": "Stability in human plasma (% remaining after 2 h)", "setting": "[1]; 2 h", "value": "99.7 ^7%"},
      {"measurement": "Stability in human plasma (% remaining after 6 h)", "setting": "[1]; 6 h", "value": "91.3 ^7%"},
      {"measurement": "IC50", "setting": "[2]; read-out: in vitro IC50 for P. falciparum gametocyte cultures", "value": "~100", "unit": "nM"},
      {"measurement": "IC50", "setting": "[2]; stage I–III (early) gametocytes, read-out: IC50 in P. falciparum stage I–III gametocytes", "value": "95 ± 2", "unit": "nM"},
      {"measurement": "IC50", "setting": "[2]; stage V gametocytes, read-out: IC50 in P. falciparum stage V gametocytes (converted)", "value": 103, "unit": "nM"},
      {"measurement": "IC50", "setting": "[3]; 3D7, 48 h, read-out: IC50 in P. falciparum asexual blood stages", "value": "90.5 ± 7", "unit": "nM"},
      {"measurement": "IC80", "setting": "[3]; 3D7, read-out: IC80 (stage arrest assay)", "value": 200, "unit": "nM"},
      {"measurement": "IC50", "setting": "[3]; 2 h, read-out: IC50 ± SEM", "value": "224 ± 27", "unit": "nM"},
      {"measurement": "efflux route in Caco-2 cells", "setting": "Caco-2 cells; with efflux inhibitors", "value": "OSTα/β transporters mediated YAT2150 efflux"},
      {"measurement": "influx route in Caco-2 cells", "setting": "Caco-2 cells; with influx inhibitors", "value": "mainly internalized by endocytosis and also through the OATP2B1 transporter"},
      {"measurement": "CC50 at 96 h", "setting": "[4]", "value": "660 ± 10", "unit": "nM"},
      {"measurement": "CYP1A2 inhibition (% at 10 µM)", "setting": "CYP1A2", "value": "around 50%"},
      {"measurement": "CC50 at 96 h", "setting": "[5]", "value": "2540 ± 80", "unit": "nM"},
      {"measurement": "Hepatocyte stability (% remaining after 2 h)", "setting": "[6]", "value": "70.4 ^7%"},
      {"measurement": "Hepatocyte stability T1/2", "setting": "[6]", "value": "277.3 ^7 min"},
      {"measurement": "inhibition at 30 min, 10 µM", "setting": "CYP3A4", "value": "35 ± 3", "unit": "%"},
      {"measurement": "SI (CC50/IC50)", "setting": "[7]", "value": "~66"},
      {"measurement": "IC50", "setting": "[8]", "value": "< 100", "unit": "nM"}
    ]}
  ]
}
